Laboratory results published in patent US20050148523A1, “Method of treating HIV infection in atazanavir-resistant patients using a combination of atazanavir and another protease inhibitor” (priority 2003, published 2005).
Read-outs that look alike come from different tables or passages of the source.

Assays:
[1] = system: clinical isolates containing an I50L substitution (and their baseline isolates); assay: PhenoSense phenotypic susceptibility of clinical isolates from ATV-treated patients who developed I50L; type: cell-based, HIV-1
Source text: Study Population. Viral samples (baseline and on-treatment, where available) were obtained from patients who experienced virologic failure while enrolled in studies AI424-007/041 [12] (ATV+d4T and ddI), AI424-008/044 [13, 14] (ATV+d4T and 3TC) and AI424-034 [9] (ATV or EFV in combination with ZDV and 3TC). […] In general, virologic failure specimens were selected for further resistance evaluation only if they contained >1,000 copies/mL HIV-1 RNA and there was no indication that the specimen came from a patient at a time of transient non-adherence to study drug(s). […] For non-responders, samples from week 16 (or 24) were tested. Drug adherence was determined from pill counts of returned study medications at each scheduled visit.
(§1) Drug Susceptibility Assays. Clinical isolates were subjected to phenotypic (PhenoSense™) and genotypic (GeneSeq™) analysis by Virologic, Inc. as described elsewhere.

[2] = system: clinical isolates containing an I50V; assay: PhenoSense phenotypic susceptibility of clinical isolates containing I50V; type: cell-based, HIV-1
Source text: as §1
Because an I50V substitution is a signature mutation sometimes associated with APV resistance, the cross-resistance relationship between ATV and APV was further examined.

[3] = system: recombinant HIV-1 viruses (NL4-3, RF, LAI) in MT-2 cells; assay: MT-2 cell susceptibility assay of recombinant viruses; type: cell-based
Protocol: Cells and Viruses. MT-2 cells, HIV-1 RF, HIV1-LAI, and the HIV-1 NL4-3 proviral clones were obtained through the AIDS Research and Reference Reagent Program, National Institutes of Health. MT-2 cells were cultured in RPMI 1640 medium supplemented with 10% fetal bovine serum, 2 mM L-glutamine, and 10 mM Hepes buffer. HIV-1 viruses were generated by transient transfection of the proviral DNA into Human Embryonic Kidney 293 cells using Lipofectamine reagents (Gibco BRL). The viruses were harvested 72 hr post-transfection, amplified in MT-2 cells, and titered in the same cells using a virus yield assay.
Recombinant HIV-1 Variants and Chimeric NL4-3 Proviral Clones. HIV-1 strains with defined substitutions in the protease gene were generated by QuikChange® site-directed mutagenesis as recommended by the manufacturer (Stratagene). Recombinant NL4-3 and LAI proviral clones containing the wild-type and mutant protease genes from RF and clinical isolates were constructed by replacing the SseI/ApaI fragment of pNL4-3 with the appropriate SseI/ApaI protease fragments.
Recombinant viruses (generated separately from those made for PhenoSense assays) were tested in an MT-2 cell susceptibility assay at Bristol Myers Squibb. MT-2 cells were infected with recombinant viruses at a multiplicity of infection (MOI) of 0.005 50% tissue culture infective doses (TCID50)/cell followed by incubation in the presence or absence of serially diluted protease inhibitors for 4 to 7 days. Virus yields were quantified using a RT assay as previously described. The results from at least four independent experiments were used to calculate the EC50.

NL4-3 reference strain = assay: PhenoSense phenotypic drug susceptibility assay, reference strain; type: cell-based, HIV-1; conditions: Human immunodeficiency virus 1, NL43; over the several months of sample testing; read-out: IC50 measured for the NL4-3 reference strain
Protocol: Drug Susceptibility Assays. Clinical isolates were subjected to phenotypic (PhenoSense™) and genotypic (GeneSeq™) analysis by Virologic, Inc. as described elsewhere. Over the time period (several months) in which the samples reported here were tested, the ATV IC50 measured for the NL4-3 reference strain ranged from 0.9-2.0 nM. The success rate in obtaining phenotype and genotype results from patients experiencing virologic failure ranged from 30 to 50%, largely because of low HIV RNA levels (the assays used required levels of >=500 c/mL), insufficient sample volume, or no sample was available.

## COC(=O)N[C@H](C(=O)N[C@@H](Cc1ccccc1)[C@@H](O)CN(Cc1ccc(-c2ccccn2)cc1)NC(=O)[C@@H](NC(=O)OC)C(C)(C)C)C(C)(C)C [ATV, atazanavir]
[1]; I50L isolates, relative to NL4-3 reference strain
  median FC: 9.6 fold
[1]; Isolate with I50L 1
  Susceptibility, Fold Change in EC50 relative to reference strain: 3.5 Fold Change
[1]; Isolate with I50L 2
  Susceptibility, Fold Change in EC50 relative to reference strain: 4.9 Fold Change
[1]; Isolate with I50L 3
  Susceptibility, Fold Change in EC50 relative to reference strain: 5.2 Fold Change
[1]; Isolate with I50L 4
  Susceptibility, Fold Change in EC50 relative to reference strain: 5.8 Fold Change
[1]; Isolate with I50L 5
  Susceptibility, Fold Change in EC50 relative to reference strain: 6.7 Fold Change
[1]; Isolate with I50L 6
  Susceptibility, Fold Change in EC50 relative to reference strain: 7.9 Fold Change
[1]; Isolate with I50L 7
  Susceptibility, Fold Change in EC50 relative to reference strain: 8.6 Fold Change
[1]; Isolate with I50L 8
  Susceptibility, Fold Change in EC50 relative to reference strain: 8.8 Fold Change
[1]; Isolate with I50L 9
  Susceptibility, Fold Change in EC50 relative to reference strain: 9.5 Fold Change
[1]; Isolate with I50L 10
  Susceptibility, Fold Change in EC50 relative to reference strain: 10 Fold Change
[1]; Isolate with I50L 11
  Susceptibility, Fold Change in EC50 relative to reference strain: 11 Fold Change
[1]; Isolate with I50L 12
  Susceptibility, Fold Change in EC50 relative to reference strain: 12 Fold Change
[1]; Isolate with I50L 13
  Susceptibility, Fold Change in EC50 relative to reference strain: 13 Fold Change
[1]; Isolate with I50L 14
  Susceptibility, Fold Change in EC50 relative to reference strain: 19 Fold Change
[1]; Isolate with I50L 15
  Susceptibility, Fold Change in EC50 relative to reference strain: 22 Fold Change
[1]; Isolate with I50L 16
  Susceptibility, Fold Change in EC50 relative to reference strain: 29 Fold Change
[1]; Subject 076, Week 80
  Susceptibility, Fold Change in EC50 relative to reference strain: 9.5 Fold Change
[1]; Subject 076, Week 92
  Susceptibility, Fold Change in EC50 relative to reference strain: 16 Fold Change
[1]; Subject 100, Week 1.7
  Susceptibility, Fold Change in EC50 relative to reference strain: 1.5 Fold Change
[1]; Subject 169, Week 0.1
  Susceptibility, Fold Change in EC50 relative to reference strain: 1.1 Fold Change
[1]; Subject 169, Week 90
  Susceptibility, Fold Change in EC50 relative to reference strain: 12 Fold Change
[1]; Subject 169, Week 102
  Susceptibility, Fold Change in EC50 relative to reference strain: 9.2 Fold Change
[1]; Subject 169, Week 114
  Subceptibility, Fold Change in EC50 relative to reference strain: 13 Fold Change
[1]; Subject 362, Week 0.1
  Susceptibility, Fold Change in EC50 relative to reference strain: 1.3 Fold Change
[1]; Subject 362, Week 108
  Susceptibility, Fold Change in EC50 relative to reference strain: 12 Fold Change
[1]; on emergence of I50L, n=15
  median decrease in susceptibility from baseline: 9.6 fold
[1]; same isolate prior to developing the I50L change
  FC: 0.2
[1]; the one I50L isolate with lowest FC, on treatment
  FC: 1.5
[1]; three on treatment isolates containing I50I/L mixtures
  FC: below 1
[1]; viruses containing the I50L substitution, FIG. 3
  median FC: selective resistance
[2]; 8 I50V isolates resistant to APV
  number of the eight isolates with FC less than 1.0: Seven
[2]; Isolate with I50V 1
  Susceptibility, Fold Change in EC50 relative to reference strain: 0.3 Fold Change
[2]; Isolate with I50V 2
  Susceptibility, Fold Change in EC50 relative to reference strain: 0.4 Fold Change
[2]; Isolate with I50V 3
  Susceptibility, Fold Change in EC50 relative to reference strain: 0.6 Fold Change
[2]; Isolate with I50V 4
  Susceptibility, Fold Change in EC50 relative to reference strain: 1.2 Fold Change
[2]; Isolate with I50V 5
  Susceptibility, Fold Change in EC50 relative to reference strain: 0.4 Fold Change
[2]; Isolate with I50V 6
  Susceptibility, Fold Change in EC50 relative to reference strain: 0.8 Fold Change
[2]; Isolate with I50V 7
  Susceptibility, Fold Change in EC50 relative to reference strain: 0.5 Fold Change
[2]; Isolate with I50V 8
  Susceptibility, Fold Change in EC50 relative to reference strain: 0.5 Fold Change
[2]; {}
  number of the eight isolates with FC of 0.4 or less: 3
[3]; Human immunodeficiency virus 1, NL43, MT2, LAI A71V, read-out: ATV phenotype (value before parenthesis, EC50)
  EC50: 3.7 ± 0.9 nM
[3]; Human immunodeficiency virus 1, NL43, MT2, LAI Control, read-out: ATV phenotype (value before parenthesis, EC50)
  EC50: 1.5 ± 0.3 nM
[3]; Human immunodeficiency virus 1, NL43, MT2, LAI I50L, read-out: ATV phenotype (value before parenthesis, EC50)
  EC50: 8.2 ± 3.4 nM
[3]; Human immunodeficiency virus 1, NL43, MT2, NL4-3 020: I50L + M46I, L63P, H69Q, V77I, I93L, read-out: ATV phenotype (value before parenthesis, EC50)
  EC50: 1.9 ± 0.5 nM
[3]; Human immunodeficiency virus 1, NL43, MT2, NL4-3 100A: I50L + L63P, K70R, A71V, N88S, read-out: ATV phenotype (value before parenthesis, EC50)
  EC50: 22.9 ± 6.4 nM
[3]; Human immunodeficiency virus 1, NL43, MT2, NL4-3 100B: I50L + L63P, K70R, A71V, G73S, read-out: ATV phenotype (value before parenthesis, EC50)
  EC50: 27.8 ± 2.8 nM
[3]; Human immunodeficiency virus 1, NL43, MT2, NL4-3 296: I50L + K45R, L63P, A71V, G73S, V77I, I93L, read-out: ATV phenotype (value before parenthesis, EC50)
  EC50: 7.1 ± 1.6 nM
[3]; Human immunodeficiency virus 1, NL43, MT2, NL4-3 347: I50L + I13V, E35D, M36I, M46L, L63P, A71V, V82A, read-out: ATV phenotype (value before parenthesis, EC50)
  EC50: 12.1 ± 1.4 nM
[3]; Human immunodeficiency virus 1, NL43, MT2, NL4-3 372: I50L + L10I, L63P, G73S, I93L, read-out: ATV phenotype (value before parenthesis, EC50)
  EC50: 9.8 ± 0.7 nM
[3]; Human immunodeficiency virus 1, NL43, MT2, NL4-3 398: I50L + E35D, M36L, N37S, R41K, R57K, I62V, L63P, I93L, read-out: ATV phenotype (value before parenthesis, EC50)
  EC50: 9 ± 1.5 nM
[3]; Human immunodeficiency virus 1, NL43, MT2, NL4-3 450: I50L + L19I, R41K, A71V, T74S, read-out: ATV phenotype (value before parenthesis, EC50)
  EC50: 4.4 ± 2.9 nM
[3]; Human immunodeficiency virus 1, NL43, MT2, NL4-3 A71V, read-out: ATV phenotype (value before parenthesis, EC50)
  EC50: 2.4 ± 0.04 nM
[3]; Human immunodeficiency virus 1, NL43, MT2, NL4-3 Control (first group), read-out: ATV phenotype (value before parenthesis, EC50)
  EC50: 0.8 ± 0.3 nM
[3]; Human immunodeficiency virus 1, NL43, MT2, NL4-3 I50L + A71V, read-out: ATV phenotype (value before parenthesis, EC50)
  EC50: 8.6 ± 1.9 nM
[3]; Human immunodeficiency virus 1, NL43, MT2, NL4-3 I50L, read-out: ATV phenotype (value before parenthesis, EC50)
  EC50: 3.1 ± 1.6 nM
[3]; Human immunodeficiency virus 1, NL43, MT2, RF A71V, read-out: ATV phenotype (value before parenthesis, EC50)
  EC50: 0.6 ± 0.2 nM
[3]; Human immunodeficiency virus 1, NL43, MT2, RF Control, read-out: ATV phenotype (value before parenthesis, EC50)
  EC50: 0.7 ± 0.1 nM
[3]; Human immunodeficiency virus 1, NL43, MT2, RF I50L + A71V, read-out: ATV phenotype (value before parenthesis, EC50)
  EC50: 4 ± 0.3 nM
[3]; Human immunodeficiency virus 1, NL43, MT2, RF I50L, read-out: ATV phenotype (value before parenthesis, EC50)
  EC50: 2.2 ± 1.8 nM
[3]; Human immunodeficiency virus 1, NL43, MT2, read-out: ATV phenotype (value before parenthesis, EC50), LAI 150L + A71V
  EC50: 15.1 ± 4.7 nM
[3]; Human immunodeficiency virus 1, NL43, MT2, read-out: ATV phenotype (value before parenthesis, EC50), NL4-3 Control (second group, site-directed mutants)
  EC50: 1.5 ± 0.1 nM
[3]; LAI 150L + A71V
  ATV (Fold Change): 10 Fold Change
[3]; LAI A71V
  ATV (Fold Change): 2.4 Fold Change
[3]; LAI I50L
  ATV (Fold Change): 5.4 Fold Change
[3]; NL4-3 020: I50L + M46I, L63P, H69Q, V77I, I93L
  ATV (Fold Change): 2.5 Fold Change
[3]; NL4-3 100A: I50L + L63P, K70R, A71V, N88S
  ATV (Fold Change): 31 Fold Change
[3]; NL4-3 100B: I50L + L63P, K70R, A71V, G73S
  ATV (Fold Change): 37 Fold Change
[3]; NL4-3 296: I50L + K45R, L63P, A71V, G73S, V77I, I93L
  ATV (Fold Change): 9.5 Fold Change
[3]; NL4-3 347: I50L + I13V, E35D, M36I, M46L, L63P, A71V, V82A
  ATV (Fold Change): 16 Fold Change
[3]; NL4-3 372: I50L + L10I, L63P, G73S, I93L
  ATV (Fold Change): 13 Fold Change
[3]; NL4-3 398: I50L + E35D, M36L, N37S, R41K, R57K, I62V, L63P, I93L
  ATV (Fold Change): 12 Fold Change
[3]; NL4-3 450: I50L + L19I, R41K, A71V, T74S
  ATV (Fold Change): 5.9 Fold Change
[3]; NL4-3 A71V
  ATV (Fold Change): 1.6 Fold Change
[3]; NL4-3 I50L
  ATV (Fold Change): 2.1 Fold Change
[3]; NL4-3 I50L + A71V
  ATV (Fold Change): 5.9 Fold Change
[3]; RF A71V
  ATV (Fold Change): 0.9 Fold Change
[3]; RF I50L
  ATV (Fold Change): 3 Fold Change
[3]; RF I50L + A71V
  ATV (Fold Change): 5.7 Fold Change
[3]; {}
  decrease in susceptibility: 2.1-5.4 fold
NL4-3 reference strain
  IC50: 0.9 to 2 nM
